Source: paper PMC7156458, “Synthetic biology based construction of biological activity-related library of fungal decalin-containing diterpenoid pyrones” (Nature Communications, 2020)

Biological target: Aβ42 (Homo sapiens, UniProt P05067)
Assay: Th-T (thioflavin-T) assay of Aβ42 aggregation
Assay type: biochemical
Settings: for Th-T fluorescence, mean of three wells: Aβ42 aggregation time course

Sequence of Aβ42 (P05067 672-713): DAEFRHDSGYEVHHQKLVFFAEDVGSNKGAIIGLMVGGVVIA

C=C1CC[C@@H]2[C@](C)(CC[C@H]3O[C@H](C=C(C)C)C[C@@]23C)[C@@H]1Cc1c(OC)oc(CO)c(C(=O)OC)c1=O [Compound 21]
first Th-T assay result (Aβ42 (10 μM) ± DPPs (20 μM), room temperature): clearly delayed nuclei formation of Aβ42
Th-T fluorescence, mean of three wells (reading M117): 1.039
Th-T fluorescence, mean of three wells (reading M118): 1.038
Th-T fluorescence, mean of three wells (reading M119): 1.047
Th-T fluorescence, mean of three wells (reading M120): 1.046
Th-T fluorescence, mean of three wells (reading M121): 1.028
Th-T fluorescence, mean of three wells (reading M122): 1.042
Th-T fluorescence, mean of three wells (reading M123): 1.04
Th-T fluorescence, mean of three wells (reading M124): 1.043
Th-T fluorescence, mean of three wells (reading M125): 1.031
Th-T fluorescence, mean of three wells (reading M126): 1.048
Th-T fluorescence, mean of three wells (reading M127): 1.027
Th-T fluorescence, mean of three wells (reading M128): 1.04
Th-T fluorescence, mean of three wells (reading M129): 1.041
Th-T fluorescence, mean of three wells (reading M130): 1.048
nucleation phase of Aβ42 delayed until (Th-T fluorescence of Aβ42 alone began to increase after 4 h): 13 h
Th-T fluorescence, mean of three wells (Fig. 7a) (column suffix _10, measurement M19): 0.2262
Th-T fluorescence, mean of three wells (Fig. 7a) (column suffix _10, measurement M20): 0.2276
Th-T fluorescence, mean of three wells (Fig. 7a) (column suffix _10, measurement M21): 0.2311
Th-T fluorescence, mean of three wells (Fig. 7a) (column suffix _10, measurement M22): 0.2318
Th-T fluorescence, mean of three wells (Fig. 7a) (column suffix _10, measurement M23): 0.2319
Th-T fluorescence, mean of three wells (Fig. 7a) (column suffix _10, measurement M24): 0.2323
Th-T fluorescence, mean of three wells (Fig. 7a) (column suffix _10, measurement M25): 0.2332
Th-T fluorescence, mean of three wells (Fig. 7a) (column suffix _10, measurement M26): 0.2371
Th-T fluorescence, mean of three wells (Fig. 7a) (column suffix _10, measurement M27): 0.238
Th-T fluorescence, mean of three wells (Fig. 7a) (column suffix _10, measurement M28): 0.2386
Th-T fluorescence, mean of three wells (Fig. 7a) (column suffix _10, measurement M29): 0.2373
Th-T fluorescence, mean of three wells (Fig. 7a) (column suffix _10, measurement M30): 0.2428
Th-T assay signal, mean of three wells (Fig. 7a) (column suffix _10, reading M1): 0.2407
Th-T assay signal, mean of three wells (Fig. 7a) (column suffix _10, reading M2): 0.2463
Th-T assay signal, mean of three wells (Fig. 7a) (column suffix _10, reading M3): 0.2449
Th-T assay signal, mean of three wells (Fig. 7a) (column suffix _10, reading M4): 0.2384
Th-T assay signal, mean of three wells (Fig. 7a) (column suffix _10, reading M5): 0.2363
Th-T assay signal, mean of three wells (Fig. 7a) (column suffix _10, reading M6): 0.2279
Th-T assay signal, mean of three wells (Fig. 7a) (column suffix _10, reading M7): 0.2237
Th-T assay signal, mean of three wells (Fig. 7a) (column suffix _10, reading M8): 0.2225
Th-T assay signal, mean of three wells (Fig. 7a) (column suffix _10, reading M9): 0.2211
Th-T assay signal, mean of three wells (Fig. 7a) (column suffix _10, reading M10): 0.2184
Th-T assay signal, mean of three wells (Fig. 7a) (column suffix _10, reading M11): 0.2174
Th-T assay signal, mean of three wells (Fig. 7a) (column suffix _10, reading M12): 0.2206
Th-T assay signal, mean of three wells (Fig. 7a) (column suffix _10, reading M13): 0.2193
Th-T assay signal, mean of three wells (Fig. 7a) (column suffix _10, reading M14): 0.2201
Th-T assay signal, mean of three wells (Fig. 7a) (column suffix _10, reading M15): 0.222
Th-T assay signal, mean of three wells (Fig. 7a) (column suffix _10, reading M16): 0.2237
Th-T assay signal, mean of three wells (Fig. 7a) (column suffix _10, reading M17): 0.228
Th-T assay signal, mean of three wells (Fig. 7a) (column suffix _10, reading M18): 0.2253
Fig. 7a Th-T reading, mean of three wells (column suffix _10, reading M85): 1.478
Fig. 7a Th-T reading, mean of three wells (column suffix _10, reading M86): 1.509
Fig. 7a Th-T reading, mean of three wells (column suffix _10, reading M87): 1.557
Fig. 7a Th-T reading, mean of three wells (column suffix _10, reading M88): 1.549
Fig. 7a Th-T reading, mean of three wells (column suffix _10, reading M89): 1.5658
Fig. 7a Th-T reading, mean of three wells (column suffix _10, reading M90): 1.591
Fig. 7a Th-T reading, mean of three wells (column suffix _10, reading M91): 1.5663
Fig. 7a Th-T reading, mean of three wells (column suffix _10, reading M92): 1.592
Fig. 7a Th-T reading, mean of three wells (column suffix _10, reading M93): 1.631
Fig. 7a Th-T reading, mean of three wells (column suffix _10, reading M94): 1.598
Fig. 7a Th-T reading, mean of three wells (column suffix _10, reading M95): 1.661
Fig. 7a Th-T reading, mean of three wells (column suffix _10, reading M96): 1.586
Fig. 7a Th-T reading, mean of three wells (column suffix _10, reading M97): 1.595
Fig. 7a Th-T reading, mean of three wells (column suffix _10, reading M98): 1.638
Fig. 7a Th-T reading, mean of three wells (column suffix _10, reading M99): 1.631
Fig. 7a Th-T reading, mean of three wells (column suffix _10, reading M100): 1.623
Fig. 7a Th-T reading, mean of three wells (column suffix _10, reading M101): 1.644
Fig. 7a Th-T reading, mean of three wells (column suffix _10, reading M102): 1.607
Fig. 7a Th-T reading, mean of three wells (column suffix _10, reading M103): 1.621
Fig. 7a Th-T reading, mean of three wells (column suffix _10, reading M104): 1.621
Fig. 7a Th-T reading, mean of three wells (column suffix _10, reading M105): 1.667
Fig. 7a Th-T reading, mean of three wells (column suffix _10, reading M106): 1.671
Th-T fluorescence, mean of three wells (Fig. 7a) (column suffix _20, measurement M19): 0.1942
Th-T fluorescence, mean of three wells (Fig. 7a) (column suffix _20, measurement M20): 0.198
Th-T fluorescence, mean of three wells (Fig. 7a) (column suffix _20, measurement M21): 0.1975
Th-T fluorescence, mean of three wells (Fig. 7a) (column suffix _20, measurement M22): 0.1979
Th-T fluorescence, mean of three wells (Fig. 7a) (column suffix _20, measurement M23): 0.1984
Th-T fluorescence, mean of three wells (Fig. 7a) (column suffix _20, measurement M24): 0.2012
Th-T fluorescence, mean of three wells (Fig. 7a) (column suffix _20, measurement M25): 0.2016
Th-T fluorescence, mean of three wells (Fig. 7a) (column suffix _20, measurement M26): 0.2021
Th-T fluorescence, mean of three wells (Fig. 7a) (column suffix _20, measurement M27): 0.2014
Th-T fluorescence, mean of three wells (Fig. 7a) (column suffix _20, measurement M28): 0.2017
Th-T fluorescence, mean of three wells (Fig. 7a) (column suffix _20, measurement M29): 0.2027
Th-T assay signal, mean of three wells (Fig. 7a) (column suffix _20, reading M1): 0.2262
Th-T assay signal, mean of three wells (Fig. 7a) (column suffix _20, reading M2): 0.223
Th-T assay signal, mean of three wells (Fig. 7a) (column suffix _20, reading M3): 0.2155
Th-T assay signal, mean of three wells (Fig. 7a) (column suffix _20, reading M4): 0.2051
Th-T assay signal, mean of three wells (Fig. 7a) (column suffix _20, reading M5): 0.2019
Th-T assay signal, mean of three wells (Fig. 7a) (column suffix _20, reading M6): 0.1953
Th-T assay signal, mean of three wells (Fig. 7a) (column suffix _20, reading M7): 0.1945
Th-T assay signal, mean of three wells (Fig. 7a) (column suffix _20, reading M8): 0.1954
Th-T assay signal, mean of three wells (Fig. 7a) (column suffix _20, reading M9): 0.1943
Th-T assay signal, mean of three wells (Fig. 7a) (column suffix _20, reading M10): 0.1989
Th-T assay signal, mean of three wells (Fig. 7a) (column suffix _20, reading M11): 0.1963
Th-T assay signal, mean of three wells (Fig. 7a) (column suffix _20, reading M12): 0.198
Th-T assay signal, mean of three wells (Fig. 7a) (column suffix _20, reading M13): 0.1957
Th-T assay signal, mean of three wells (Fig. 7a) (column suffix _20, reading M14): 0.1953
Th-T assay signal, mean of three wells (Fig. 7a) (column suffix _20, reading M15): 0.1958
Th-T assay signal, mean of three wells (Fig. 7a) (column suffix _20, reading M16): 0.1968
Th-T assay signal, mean of three wells (Fig. 7a) (column suffix _20, reading M17): 0.1967
Th-T assay signal, mean of three wells (Fig. 7a) (column suffix _20, reading M18): 0.1963
Fig. 7a Th-T reading, mean of three wells (column suffix _20, reading M85): 0.5666
Fig. 7a Th-T reading, mean of three wells (column suffix _20, reading M86): 0.5976
Fig. 7a Th-T reading, mean of three wells (column suffix _20, reading M87): 0.6445
Fig. 7a Th-T reading, mean of three wells (column suffix _20, reading M88): 0.6876
Fig. 7a Th-T reading, mean of three wells (column suffix _20, reading M89): 0.7312
Fig. 7a Th-T reading, mean of three wells (column suffix _20, reading M90): 0.7695
Fig. 7a Th-T reading, mean of three wells (column suffix _20, reading M91): 0.7994
Fig. 7a Th-T reading, mean of three wells (column suffix _20, reading M92): 0.8356
Fig. 7a Th-T reading, mean of three wells (column suffix _20, reading M93): 0.8329
Fig. 7a Th-T reading, mean of three wells (column suffix _20, reading M94): 0.8638
Fig. 7a Th-T reading, mean of three wells (column suffix _20, reading M95): 0.8786
Fig. 7a Th-T reading, mean of three wells (column suffix _20, reading M96): 0.9004
Fig. 7a Th-T reading, mean of three wells (column suffix _20, reading M97): 0.8843
Fig. 7a Th-T reading, mean of three wells (column suffix _20, reading M98): 0.903
Fig. 7a Th-T reading, mean of three wells (column suffix _20, reading M99): 0.9153
Fig. 7a Th-T reading, mean of three wells (column suffix _20, reading M100): 0.9048
